In patent publication US8524692B2, “Ocular compositions containing dioleoylphosphatidylglycerol and uses thereof” (Georgia Health Sciences University Research Institute, Inc., priority 2010, dated 2013):

Assays:
[1] = system: keratinocytes; settings: cited from earlier work
[2] = system: keratinocytes; test: [3H]Thymidine incorporation into DNA in keratinocytes; format: cell-based; settings: for promotion of proliferation in slowly dividing keratinocytes / inhibition of proliferation in rapidly dividing keratinocytes: 24 hours, PG species prepared by bath sonication, compared with egg phosphatidylglycerol
Experimental: Keratinocytes were treated for 24 hours with the indicated concentrations of different phosphatidylglycerol species, prepared via bath sonication of phospholipid in serum-free keratinocyte medium. [^3H]Thymidine incorporation into DNA was then determined in duplicate and averaged. All data were transformed prior to analyses to improve assumptions of normality and additivity for the models to be used. Experiments were grouped that had different responses to egg phosphatidylglycerol using finite mixture regression models and the flexmix package in R (1). This method clusters each experiment by the regression fit between In(CPM) and In(concentration), grouping cultures with similar regression lines in the same cluster. The number of clusters was determined using the Bayesian information criterion (BIC). A mixed model analysis of variance was used, conducted using the Proc Mixed procedure in SAS 9.13, separately for each of the grouped clusters to determine how the different phosphatidylglycerol species affected the relationship between cell proliferation and phosphatidylglycerol concentration. The model used for this analysis of variance included phosphatidylglycerol species as a fixed effect that potentially interacted with In(concentration), and random coefficients for each culture/experiment. The number of experiments segregating into each cluster are indicated and *p<0.05 versus the response to egg phosphatidylglycerol liposomes.
[^3H]Thymidine Incorporation Assays: [^3H]Thymidine incorporation into DNA is measured as described (62).
The effect of providing phosphatidylglycerol directly to keratinocytes in the form of liposomes was examined, since direct provision of phosphatidylglycerol itself should also trigger early differentiation. […] The egg phosphatidylglycerol used in these experiments is composed primarily of the dioleoyl and dipalmitoyl species; therefore, that there is no effect of dipalmitoyl-PP on DNA synthesis was also determined. On the other hand, if phosphatidylglycerol liposomes are applied to keratinocytes with decreased proliferative capacity, presumably as the result of contact inhibition (and as indicated by reduced [3H]thymidine incorporation into DNA under control conditions), DNA synthesis is stimulated in a dose-dependent manner, with a half-maximal effect at a concentration of approximately 35_g/mL and a maximal stimulation at 100 μg/mL.

[3] = system: PLD; settings: acute stimulation, radiolabeled phosphatidylethanol production; cited from earlier work
[4] = system: transformed human corneal epithelial cells; test: Scratch wound closure assay in corneal epithelial cells; format: cell-based; settings: 24 hours
Experimental: SV40-immortalized human corneal epithelial cells were cultured in a 1:1 mixture of defined keratinocyte serum free (dKSF) medium (Gibco) and minimum essential medium (Cellgro) until confluent. A pipet tip was then used to create a scratch wound in the confluent monolayer. Cells were rinsed with PBS to remove unattached and damaged cells and photographed under the microscope. The medium was replaced with dKSF containing the indicated additions (Ca corresponds to 1 mM Ca^2+). Cells were incubated for 24 hours and photographed again. Percent wound closure was calculated as the change in width of the scratch wound compared to the size of the initial wound and was expressed relative to the control (medium with no additions containing 90 μM Ca^2+); *p<0.05; **p<0.01 versus the control (n=3).
FIGS. 8A-8B show the effect of egg phosphatidylglycerol and dioleoylphosphatidylglycerol on wound closure in transformed human corneal epithelial cells. SV40-immortalized human corneal epithelial cells were cultured in a 1:1 mixture of defined keratinocyte serum free (dKSF) medium (Gibco) and minimum essential medium (Cellgro) until confluent. […] Percent wound closure was calculated as the change in width of the scratch wound compared to the size of the initial wound and was expressed relative to the control (medium with no additions); *p<0.05 versus the control (n=3). […]

[5] = system: SV40-immortalized human corneal epithelial cells; test: [3H]Thymidine incorporation into DNA in corneal epithelial cells; format: cell-based; settings: 1 mM calcium versus control 90 μM, 24 hours
Experimental: [^3H]Thymidine incorporation into DNA was then determined. Values represent the means±SEM of 3 separate experiments performed in duplicate; *p<0.05, **p<0.01 versus the control value.
SV40-immortalized human corneal epithelial cells were cultured in a 1:1 mixture of defined keratinocyte serum free (dKSF) medium (Gibco) and minimum essential medium (Cellgro) until approximately 70% confluent. […] [^3H]Thymidine incorporation into DNA was then determined. Values represent the means±SEM of 4 separate experiments performed in duplicate; *p<0.01 versus the control value.
The cells are cultured in defined keratinocyte serum-free (dKSF) medium (Gibco) and passaged following trypsinization from the culture dish.

[6] = system: keratinocytes; settings: concentrations from 0.1 to 1%; cited from earlier work

For `C=C1/C(=C\C=C2/CCC[C@]3(C)[C@@H]([C@H](C)CCCC(C)(C)O)CC[C@@H]23)C[C@@H](O)C[C@@H]1O` [1,25-dihydroxyvitamin D3], the “radiolabeled PG formation” value ([1]; 250 nM, 24 hours) is given as “a decrease”.

With `CCCCCCCC/C=C\CCCCCCCC(=O)O[C@H](COC(=O)CCCCCCCCCCCCCCC)COP(=O)(O)OCC(O)CO` (stereo partly drawn) [Palmitoyl, oleoyl-PG, palmitoyloleoylphosphatidylglycerol] the “promotion of proliferation in slowly dividing keratinocytes” value [2] was “especially effective proproliferative”.

In the case of `CCCCCCCCCCCCCC(=O)O[C@@H]1[C@@H](C)[C@@]2(O)[C@@H](C=C(CO)C[C@]3(O)C(=O)C(C)=C[C@@H]23)[C@H]2C(C)(C)[C@]12OC(C)=O` [TPA], the radiolabeled phosphatidylglycerol levels ([1]; acute stimulation) is given as “no increase” and the PLD activity [3] is given as “activates PLD”.

For `CCCCC/C=C\C/C=C\CCCCCCCC(=O)OC[C@H](COP(=O)(O)OCC(O)CO)OC(=O)CCCCCCC/C=C\C/C=C\CCCCC` (stereo partly drawn) [dilinoleoyl-PG], the “inhibition of proliferation in rapidly dividing keratinocytes” value (from here on “inhibition of proliferation”) [2] was “particularly effective at inhibiting proliferation”.

In the case of `CCCCCCCC/C=C\CCCCCCCC(=O)OC[C@H](COP(=O)(O)OCC(O)CO)OC(=O)CCCCCCC/C=C\CCCCCCCC` (stereo partly drawn) [dioleoylphosphatidylglycerol], the “promotion of proliferation in slowly dividing keratinocytes” value [2] is reported as “especially effective proproliferative” and the wound closure ([4]; 50 mg/ml liposomes, relative to control) is reported as “significantly enhanced wound closure”.

In the case of `CCCCCCCCCCCCCCCC(=O)OC[C@H](COP(=O)(O)OCCC)OC(=O)CCCCCCCCCCCCCCC` [dipalmitoyl-PP], the “effect of liposomes on DNA synthesis in highly proliferative keratinocytes” value ([2]; liposomes) is reported as “no effect”.

In the case of `OCC(O)CO` [glycerol], the “inhibition of DNA synthesis together with elevated extracellular calcium” value [5] is given as “more efficiently inhibit DNA synthesis than either agent alone”, the wound closure ([4]; 0.05% glycerol and calcium (1 mM Ca2+)) is given as “significantly enhanced wound closure” and the “effect on DNA synthesis ([3H]thymidine incorporation) in keratinocytes” value (“effect on DNA synthesis” below) [6] is given as “inhibited DNA synthesis”.

In the case of `OC[C@@H](O)[C@@H](O)[C@H](O)[C@@H](O)CO` [sorbitol], the “effect on DNA synthesis” value [6] is listed as “little or no effect”.

For `OC[C@@H](O)[C@H](O)[C@@H](O)CO` [xylitol], the “effect on DNA synthesis” value [6] is given as “little or no effect”.

For Palmitoyl, arachidonyl-PG, the “inhibition of proliferation” value [2] was “particularly effective at inhibiting proliferation”.

With palmitoyl, linoleoyl-PG the “inhibition of proliferation” value [2] was “particularly effective at inhibiting proliferation”.
